Laboratory results reported in US10898469B2, “Imidazolylamide derivative” (Sumitomo Dainippon Pharma Co., Ltd., priority 2016, dated 2021).
Where two headings read alike, the source gives them in different places.

What was measured:
Type in all cases: cell-based, human
[1] = test system: HCT-116 cells; assay: Inhibition test for sphere-forming ability of cancer cells (Test Example 1), HCT-116; conditions: for IC50 / (100%-inhibition rate of cell proliferation) at 1 μmol/L, HCT-116 / viability at 1 µM: HCT-116 cells; for IC50: concentration for 50% inhibition of cell proliferation, read-out: IC50 (μmol/L) HCT-116 (Sphere IC50 value); for (100%-inhibition rate of cell proliferation) at 1 μmol/L, HCT-116 / viability at 1 µM: value with %, 1 μmol/L; for inhibitory effect on the sphere-forming ability of cancer cells: Test Example 1, summary in words, cell line not given (HCT-116, HT-29, FaDu tested); for viability at 1 µM: read-out: (100%-inhibition rate of cell proliferation) at 1 μmol/L
From the text: (§1) The reliable methods established for measuring the self-renewal ability of cells which is one of the CSC's properties include a method for measuring the sphere-forming ability of cancer cells in non-adherent condition in the absence of serum (Cancer Res 65, 5506-5511 (2005)). Human colorectal cancer-derived HCT-116 cells, human colon-adenocarcinoma-derived HT-29 cells, and human pharyngeal cancer-derived FaDu cells were available from American Type Culture Collection (ATCC). HCT-116 cells and HT-29 cells were cultured at 37° C. under 5% CO2 using the McCoy's 5a medium containing 10% fetal bovine serum (FBS) and 1% penicillin/streptomycin, and FaDu cells were cultured at 37° C. under 5% CO2 using the MEM medium containing 10% FBS, 1% non-essential amino acid, 1% sodium pyruvate, and 1% penicillin/streptomycin. HCT-116 cells, HT-29 cells, and FaDu cells were seeded in a 384 Well Black Clear Bottom Ultra-Low Attachment Microplate (Corning Cat. No. 3827) in an amount of 350-800 cells/well using the DMEM/F12 medium containing 2% B27 supplement (GIBCO), 20 ng/mL epidermal growth factor (EGF) (peprotech), 10 ng/mL basic fibroblast growth factor (bFGF) (peprotech), 5 μg/mL insulin (Sigma), and 1% penicillin/streptomycin. Each test compound was added into each well to adjust the final concentration of DMSO to 0.1%, and the cells were cultured for 4 days. The number of viable cells in each well was then measured with CellTiter-Glo® Luminescent Cell Viability Assay (Promega) to calculate the concentration of each test compound for 50% inhibition of cell proliferation (Sphere IC50 value; μmol/L).
(§2) The experiment of Test Example 1 was performed for each compound of each Example. The concentration of each test compound for 50% inhibition of cell proliferation (Sphere IC50 value; μmol/L) is shown in the following Table.

[2] = test system: HT-29 cells; assay: Inhibition test for sphere-forming ability of cancer cells (Test Example 1), HT-29; conditions: for IC50: concentration for 50% inhibition of cell proliferation, read-out: IC50 (μmol/L) HT-29 (Sphere IC50 value); for (100%-inhibition rate of cell proliferation) at 1 μmol/L, HT-29: value with %; for viability at 1 µM: read-out: (100%-inhibition rate of cell proliferation) at 1 μmol/L, 1 μmol/L, value with %
From the text: as §1, §2

[3] = test system: FaDu cells; assay: Inhibition test for sphere-forming ability of cancer cells (Test Example 1), FaDu; conditions: for IC50: concentration for 50% inhibition of cell proliferation, read-out: IC50 (μmol/L) FaDu (Sphere IC50 value); for (100%-inhibition rate of cell proliferation) at 1 μmol/L, FaDu: value with %; for viability at 1 µM: read-out: (100%-inhibition rate of cell proliferation) at 1 μmol/L, 1 μmol/L, value with %
From the text: as §1, §2

Compound	IC50 [1]	IC50 [2]	IC50 [3]	other results
COCCOc1cc(/C=C/C(=O)Nc2cn(Cc3cccc(Cl)c3)cn2)ccc1OC [Example 29, (E)-N-(1-(3-Chlorobenzyl)-1H-imidazol-4-yl)-3-(4-methoxy-3-(2-methoxyethoxy)phenyl)acrylamide]	–	–	–	IC50 ([1]; Homo sapiens): 5.87 µmol/L; IC50 ([2]; Homo sapiens): 0.89 µmol/L; IC50 ([3]; Homo sapiens): 0.76 µmol/L
O=C(/C=C/c1ccc(O)c(O)c1)Nc1cn(Cc2cccc(Cl)c2)cn1 [Example 21, (E)-N-(1-(3-Chlorobenzyl)-1H-imidazol-4-yl)-3-(3,4-dihydroxyphenyl)acrylamide]	–	–	–	IC50 ([1]; Homo sapiens): 7.05 µmol/L; IC50 ([2]; Homo sapiens): 6.65 µmol/L; IC50 ([3]; Homo sapiens): 0.66 µmol/L
O=C(Nc1cn(Cc2cccc(Cl)c2)cn1)/C(F)=C/c1cccnc1 [Example 43, (Z)—N-(1-(3-Chlorobenzyl)-1H-imidazol-4-yl)-2-fluoro-3-(pyridin-3-yl)acrylamide]	–	–	–	IC50 ([1]; Homo sapiens): 0.85 µmol/L; IC50 ([2]; Homo sapiens): 0.49 µmol/L; IC50 ([3]; Homo sapiens): 0.69 µmol/L
O=C(Nc1cn(Cc2cccc(C(F)(F)F)c2)cn1)c1ccc(=O)[nH]c1 [Example 199]	–	–	–	(100%-inhibition rate of cell proliferation) at 1 μmol/L, HCT-116 [1]: 39.8%; (100%-inhibition rate of cell proliferation) at 1 μmol/L, HT-29 [2]: 31.2%; (100%-inhibition rate of cell proliferation) at 1 μmol/L, FaDu [3]: 25.9%
O=C(/C=C/c1cccnc1)Nc1cn(Cc2cccc(OC(F)(F)F)c2)cn1 [Example 109]	–	–	–	IC50 ([1]; Homo sapiens): 2.65 µmol/L; IC50 ([2]; Homo sapiens): 0.75 µmol/L; IC50 ([3]; Homo sapiens): 0.67 µmol/L
CC(=O)Nc1ccc(/C=C/C(=O)Nc2cn(Cc3cccc(Cl)c3)cn2)cn1 [Example 20, (E)-3-(6-Acetylaminopyridin-3-yl)-N-(1-(3-chlorobenzyl)-1H-imidazol-4-yl)acrylamide]	–	–	–	IC50 ([1]; Homo sapiens): 0.45 µmol/L; IC50 ([2]; Homo sapiens): 0.01 µmol/L; IC50 ([3]; Homo sapiens): 0.06 µmol/L
COc1ccccc1/C=C/C(=O)Nc1cn(Cc2cccc(Cl)c2)cn1 [Example 77]	0.84 µmol/L	0.38 µmol/L	< 0.01 µmol/L	inhibitory effect on the sphere-forming ability of cancer cells [1]: particularly potent inhibitory effect
Cc1ccc(F)c(Cn2cnc(NC(=O)/C=C/c3cccc(Oc4ccccc4)c3)c2)c1F [Example 114]	–	–	–	IC50 ([1]; Homo sapiens): 0.62 µmol/L; IC50 ([2]; Homo sapiens): 0.69 µmol/L; IC50 ([3]; Homo sapiens): 0.72 µmol/L
O=C(/C=C/c1c[nH]cn1)Nc1cn(Cc2cccc(Cl)c2)cn1 [Example 90]	8.17 µmol/L	7.87 µmol/L	6.32 µmol/L	–
O=C(/C=C/c1ccc(-c2ccccc2)cc1)Nc1cn(Cc2cccc(Cl)c2)cn1 [Example 70]	8.98 µmol/L	0.08 µmol/L	0.09 µmol/L	–
COc1cc(C(=O)Nc2cn(Cc3cccc(Cl)c3)cn2)cnc1OC [Example 218]	0.58 µmol/L	0.06 µmol/L	0.08 µmol/L	inhibitory effect on the sphere-forming ability of cancer cells [1]: particularly potent inhibitory effect
O=C(/C=C/c1ccc(C(F)(F)F)cc1)Nc1cn(Cc2cccc(Cl)c2)cn1 [Example 48, (E)-N-(1-(3-Chlorobenzyl)-1H-imidazol-4-yl)-3-(4-(trifluoromethyl)phenyl)acrylamide]	–	–	–	IC50 ([1]; Homo sapiens): 0.76 µmol/L; IC50 ([2]; Homo sapiens): 0.08 µmol/L; IC50 ([3]; Homo sapiens): 0.09 µmol/L
O=C(/C=C/c1cncc(F)c1)Nc1cn(Cc2cccc(Cl)c2)cn1 [Example 42, (E)-N-(1-(3-Chlorobenzyl)-1H-imidazol-4-yl)-3-(5-fluoropyridin-3-yl)acrylamide]	–	–	–	IC50 ([1]; Homo sapiens): 0.96 µmol/L; IC50 ([2]; Homo sapiens): 0.7 µmol/L; IC50 ([3]; Homo sapiens): 5.77 µmol/L
O=C(/C=C/c1cccc(Cl)c1)Nc1cn(Cc2cccc(Cl)c2)cn1 [Example 58]	6.99 µmol/L	4.89 µmol/L	6.52 µmol/L	–
COc1ccc(C(=O)Nc2cn(Cc3cccc(C(F)(F)F)c3)cn2)cn1 [Example 209]	4.24 µmol/L	4.95 µmol/L	6.45 µmol/L	–
O=C(/C=C/c1c[nH]c2ccccc12)Nc1cn(Cc2cccc(Cl)c2)cn1 [Example 89]	0.96 µmol/L	0.61 µmol/L	0.04 µmol/L	–

Compound	IC50 [1]	IC50 [2]	IC50 [3]	other results
COCCOc1ccc(C(=O)Nc2cn(Cc3cccc(Cl)c3)cn2)cc1 [Example 265, N-[1-(3-Chlorobenzyl)-1H-imidazol-4-yl]-4-(2-methoxyethoxy)benzamide]	–	–	–	viability at 1 µM ([1]; Homo sapiens): 41.7%; viability at 1 µM ([2]; Homo sapiens): 33.1%; viability at 1 µM ([3]; Homo sapiens): 41.2%
O=C(/C=C/c1ccccc1F)Nc1cn(Cc2cccc(Cl)c2)cn1 [Example 50]	2.48 µmol/L	0.89 µmol/L	6.7 µmol/L	–
O=C(/C=C/c1cc(Cl)ccc1Cl)Nc1cn(Cc2cccc(Cl)c2)cn1 [Example 83]	0.8 µmol/L	0.6 µmol/L	0.91 µmol/L	–
O=C(/C=C/c1cccc(Oc2ccccc2)c1)Nc1cn(Cc2cccc(Cl)c2)cn1 [Example 79]	0.79 µmol/L	0.7 µmol/L	0.86 µmol/L	–
CCCCOc1ccc(C(=O)Nc2cn(Cc3cccc(Cl)c3)cn2)cn1 [Example 135]	–	–	–	(100%-inhibition rate of cell proliferation) at 1 μmol/L, HCT-116 [1]: 31.8%; (100%-inhibition rate of cell proliferation) at 1 μmol/L, HT-29 [2]: 28.0%; (100%-inhibition rate of cell proliferation) at 1 μmol/L, FaDu [3]: 25.0%
O=C(/C=C/c1ccccn1)Nc1cn(Cc2cccc(Cl)c2)cn1 [Example 98]	> 10 µmol/L	7.58 µmol/L	7.75 µmol/L	–
COCCOc1ccc(C(=O)Nc2cn(Cc3cccc(Cl)c3)cn2)cn1 [Example 244, N-[1-(3-Chlorobenzyl)-1H-imidazol-4-yl]-6-(2-methoxyethoxy)nicotinamide]	–	–	–	viability at 1 µM ([1]; Homo sapiens): 46.7%; viability at 1 µM ([2]; Homo sapiens): 27%; viability at 1 µM ([3]; Homo sapiens): 36.7%
COc1ccc(/C=C/C(=O)Nc2cn(Cc3cccc(Cl)c3)cn2)cc1Cl [Example 80]	> 10 µmol/L	7.04 µmol/L	0.87 µmol/L	–
COc1cccc(OC)c1/C=C/C(=O)Nc1cn(Cc2cccc(Cl)c2)cn1 [Example 76]	6.18 µmol/L	2.71 µmol/L	4.11 µmol/L	–
COc1cc(/C=C/C(=O)Nc2cn(Cc3cccc(Cl)c3)cn2)cc(OC)c1OC [Example 82]	6.51 µmol/L	0.99 µmol/L	1.76 µmol/L	–
O=C(Nc1cn(Cc2cccc(Cl)c2)cn1)c1cncc(Br)c1 [Example 283]	–	–	–	viability at 1 µM ([1]; Homo sapiens): 75.6%; viability at 1 µM ([2]; Homo sapiens): 44.7%; viability at 1 µM ([3]; Homo sapiens): 50%
CN(C)CCOc1ccc(C(=O)Nc2cn(Cc3cccc(Cl)c3)cn2)cn1 [Example 205]	> 10 µmol/L	2.39 µmol/L	6.39 µmol/L	–
Cc1cccc(C(=O)Nc2cn(Cc3cccc(Cl)c3)cn2)n1 [Example 279]	–	–	–	viability at 1 µM ([1]; Homo sapiens): 87.4%; viability at 1 µM ([2]; Homo sapiens): 42.3%; viability at 1 µM ([3]; Homo sapiens): 47.2%
COc1cc(/C=C/C(=O)Nc2cn(Cc3cccc(Cl)c3)cn2)ccc1O [Example 24]	–	–	–	IC50 ([1]; Homo sapiens): 7.42 µmol/L; IC50 ([2]; Homo sapiens): > 10 µmol/L; IC50 ([3]; Homo sapiens): 5.97 µmol/L
COc1ccc(C(=O)Nc2cn(Cc3cccc(OC(F)(F)F)c3)cn2)cc1OC [Example 166]	–	–	–	(100%-inhibition rate of cell proliferation) at 1 μmol/L, HCT-116 [1]: 36.8%; (100%-inhibition rate of cell proliferation) at 1 μmol/L, HT-29 [2]: 33.0%; (100%-inhibition rate of cell proliferation) at 1 μmol/L, FaDu [3]: 23.8%

Second part, led by results:

IC50 [1]	IC50 [2]	IC50 [3]	Compound	other results
0.87 µmol/L	0.84 µmol/L	0.87 µmol/L	COc1ccc(OC)c(/C=C/C(=O)Nc2cn(Cc3cccc(Cl)c3)cn2)c1 [Example 53]	–
4.53 µmol/L	1.49 µmol/L	0.85 µmol/L	Cc1cccc(/C=C/C(=O)Nc2cn(Cc3cccc(Cl)c3)cn2)c1 [Example 73]	–
0.08 µmol/L	0.07 µmol/L	0.09 µmol/L	COc1ccc(C(=O)Nc2cn(Cc3c(F)ccc(C)c3F)cn2)cn1 [Example 216]	inhibitory effect on the sphere-forming ability of cancer cells [1]: particularly potent inhibitory effect
5.74 µmol/L	6.62 µmol/L	4.5 µmol/L	O=C(/C=C/c1cccc(Br)c1)Nc1cn(Cc2cccc(Cl)c2)cn1 [Example 56]	–
0.23 µmol/L	0.03 µmol/L	0.06 µmol/L	COc1ccc(/C=C/C(=O)Nc2cn(Cc3cccc(Cl)c3)cn2)c(OC)c1 [Example 71]	inhibitory effect on the sphere-forming ability of cancer cells [1]: particularly potent inhibitory effect
0.88 µmol/L	0.66 µmol/L	0.85 µmol/L	CC(C)Oc1ccc(C(=O)Nc2cn(Cc3cccc(OC(F)(F)F)c3)cn2)cn1 [Example 215]	–
2.37 µmol/L	5.53 µmol/L	5.14 µmol/L	O=C(/C=C/c1ccco1)Nc1cn(Cc2cccc(Cl)c2)cn1 [Example 87]	–
0.09 µmol/L	0.07 µmol/L	0.06 µmol/L	COc1ccc(/C=C/C(=O)Nc2cn(Cc3cccc(Cl)c3)cn2)cc1OC [Example 66]	inhibitory effect on the sphere-forming ability of cancer cells [1]: particularly potent inhibitory effect
